Tested on: Swiss albino mice
Assay: Hematological and biochemical evaluation after 90-day daily oral dosing
Type: in vivo
Conditions: for HCT / HGB / MCHC / MCV / PLT / RBC-H / WBC-H: mean ± SD; for ALP, plasma / ALT, plasma / AST, plasma / BUN, plasma / CREAT (creatinine), plasma / GLU (glucose), plasma: mean ± SEM
Experimental: For the 90-day daily oral dosing sub-chronic toxicity study, twenty male and twenty female healthy 8-week-old Swiss albino mice were randomly selected and randomized to […] (n = 5/sex/group). Mice received free access to purified drinking water and high-fat diet (HFD) pelleted rodent chow (11.4% total fat, no. 7004, Envigo/Teklad, Madison, WI, USA) until the day before sacrifice, at which time they were fasted for 8 h and allowed only free access to drinking water. Daily doses of PsA (10, 40, 80 mg/kg body weight) were administered to the mice formulated in <5% DMSO (Mediatech Inc., Manassas, VA, USA) and <0.2% Tween 80 (Croda Inc., Princeton, NJ, USA) at a volume not exceeding 1% of body weight by metal oral gavage (2 mm diameter with stainless steel bite protector, 18-gauge, 3.81 cm long). […] The mice were observed weekly until the completion of the study. The body weights of the mice were measured in grams using a Scout^TM Pro (Ohaus Corp., Pine Brook, NJ, USA) on day 0, 4, 8, 11, 14, 21, 28, 35, 42, 49, 56, 63, 70, 77, 83, and 90 after initial treatment. On day 90, all mice were anesthetized using isoflurane (USP-vaporizer method, Matrix VIP-3000, Covetrus, Dublin, OH, USA, exposure of animals in an anesthesia chamber at 3% isoflurane vaporization rate. Exposure time 2 min). Mice were then euthanized by cervical dislocation according to the 2020 AVMA Guidelines on Euthanasia and dissected. Mice organs (brain, liver, kidney, heart, lungs, spleen) were excised and weighed for histopathological examination. The organs were stored in 10% neutral buffered formalin (Avantor Science Central, Allentown, PA, USA) for 24 h and then transferred to 70% ethanol (AAPER ALCOHOL, Shelbyville, KY, USA). This study was performed following the OECD guideline 408 for the testing of chemicals.
On the day of sacrifice, mice were decapitated, and the blood was quickly collected into a green-topped Lithium Heparin 400 µL blood collection tube (BD Microtainer REF# 365965) as well as a purple-topped K2 EDTA (K2E) 500 µL blood collection tube (BD Microtainer, Cat# 365974) to ensure all blood samples were collected free of clots. The Li Heparin samples were immediately centrifuged at 13,000× g for 10 min, and the plasma was transferred to 1.5 mL Eppendorf tubes free of Li heparin for biochemical analysis. Plasma samples were analyzed for AST, ALT, ALP, glucose, BUN, and creatinine levels using the Beckman AU680 clinical chemistry analyzer system (Beckman Coulter, Atlanta, GA, USA). The ETDA samples were analyzed for hematological parameters, and WBC, RBC, Hgb, Hct, MCV, MCHC, and PLT were determined using the Siemens Advia 120 hematology analyzer (Siemens Healthcare Diagnostics Inc., Tarrytown, NY, USA). All blood samples were analyzed at the LSU School of Veterinary Medicine Clinical Pathology Laboratory at Baton Rouge, Louisiana.
Results for the hematological and biochemical parameters were analyzed separately by One-way Analysis of Variance (ANOVA), followed by multiple comparisons with Dunnett’s test. All statistical analyses were performed using GraphPad Prism version 8 software (San Diego, CA, USA). Data in this study were expressed as a mean ± SD (standard deviation) and mean ± SEM (standard error of mean). A probability value of <0.05 was considered statistically significant (* p < 0.05; ** p < 0.01; and *** p < 0.001).

[1] = female, 10mg/kg daily oral 90 days
[2] = female, 40mg/kg daily oral 90 days
[3] = female, 80mg/kg daily oral 90 days
[4] = male and female treatment groups, 90 days
[5] = male, 10mg/kg daily oral 90 days
[6] = male, 40mg/kg daily oral 90 days
[7] = male, 80mg/kg daily oral 90 days

For `CC/C=C\[C@H](O)[C@H](O)C1=C(C)C(=O)[C@]2(O1)C(=O)N[C@@](OC)(C(=O)c1ccccc1)[C@@H]2O` [PsA, pseurotin A], the “AST level versus control” value (all male dosing groups, 90 days) was “significantly lower”, the “AST level versus control” value (female treatment groups, 90 days) was “significant reduction” and the HCT [1] was 48.5 ± 6.0%. For the same molecule, the HGB [1] was 12.5 ± 0.3 g/dL, the MCHC [1] was 26.2 ± 3.0 g/dL and the MCV [1] was 52.1 ± 5.0 fL. The PLT [1] was 459.0 ± 99.1 103/μL, the RBC-H [1] was 9.3 ± 0.3 106/μL and the WBC-H [1] was 6.5 ± 0.6 103/μL. The “ALP, plasma” value [1] was 78.0 ± 3.8 U/L, the “ALT, plasma” value [1] was 34.3 ± 1.9 U/L and the “AST, plasma” value [1] was 61.7 ± 6.4 U/L. The “BUN, plasma” value [1] was 22.0 ± 0.6 mg/dL, the “CREAT (creatinine), plasma” value [1] was 0.2 ± 0.0 mg/dL and the “GLU (glucose), plasma” value [1] was 291.7 ± 6.5 mg/dL. The “ALP, plasma” value [2] was 68.0 ± 3.8 U/L, the “ALT, plasma” value [2] was 34.5 ± 1.9 U/L and the “AST, plasma” value [2] was 67.8 ± 7.1 U/L. For the same molecule, the “BUN, plasma” value [2] was 17.5 ± 0.4 mg/dL, the “CREAT (creatinine), plasma” value [2] was under 0.2 ± 0.0 mg/dL and the “GLU (glucose), plasma” value [2] was 259.0 ± 5.7 mg/dL. The “ALP, plasma” value [3] was 86.8 ± 13.4 U/L, the “ALT, plasma” value [3] was 30.3 ± 3.4 U/L and the “AST, plasma” value [3] was 81.3 ± 17.8 U/L. The “BUN, plasma” value [3] was 18.5 ± 2.1 mg/dL, the “CREAT (creatinine), plasma” value [3] was 0.2 ± 0.0 mg/dL and the “GLU (glucose), plasma” value [3] was 235.3 ± 19.4 mg/dL. The “plasma ALT level versus control” value (female, all three treatment groups, 90 days) was “significantly lower”, the “BUN level versus control” value (male 10 mg/kg, female 40 mg/kg and female 80 mg/kg groups, 90 days) was “significantly lower” and the MCV versus control (male 40 mg/kg group, 90 days) was “significantly higher”. The “ALP and plasma glucose levels” value [4] was “no significant changes”, the CREAT levels [4] was “no significant change” and the “WBC-H, RBC-H, HGB, HCT, MCHC, PLT versus control” value (male up to 80 mg/kg, female 10 mg/kg, 90 days) was “did not show any significant changes”. It also gave an HCT [5] of 41.0 ± 3.0%, an HGB [5] of 11.8 ± 0.4 g/dL and an MCHC [5] of 28.8 ± 2.5 g/dL. The MCV [5] was 49.6 ± 2.5 fL, the PLT [5] was 555.0 ± 147.7 103/μL and the RBC-H [5] was 8.3 ± 0.6 106/μL. The WBC-H [5] was 4.5 ± 1.0 103/μL, the “ALP, plasma” value [5] was 71.8 ± 4.7 U/L and the “ALT, plasma” value [5] was 28.3 ± 1.7 U/L. For the same molecule, the “AST, plasma” value [5] was 57.8 ± 12.8 U/L, the “BUN, plasma” value [5] was 18.3 ± 0.7 mg/dL and the “CREAT (creatinine), plasma” value [5] was 0.2 ± 0.0 mg/dL. For the same molecule, the “GLU (glucose), plasma” value [5] was 263.8 ± 9.9 mg/dL, the HCT [6] was 47.4 ± 4.3% and the HGB [6] was 11.9 ± 0.9 g/dL. The MCHC [6] was 25.1 ± 3.3 g/dL, the MCV [6] was 55.4 ± 4.8 fL and the PLT [6] was 413.0 ± 111.2 103/μL. The RBC-H [6] was 8.6 ± 0.8 106/μL, the WBC-H [6] was 5.0 ± 1.8 103/μL and the “ALP, plasma” value [6] was 78.3 ± 5.2 U/L. The “ALT, plasma” value [6] was 28.5 ± 2.5 U/L, the “AST, plasma” value [6] was 42.8 ± 1.9 U/L and the “BUN, plasma” value [6] was 20.5 ± 0.8 mg/dL. The “CREAT (creatinine), plasma” value [6] was 0.2 ± 0.0 mg/dL, the “GLU (glucose), plasma” value [6] was 248.5 ± 12.0 mg/dL and the HCT [7] was 47.8 ± 4.9%. The HGB [7] was 12.5 ± 0.3 g/dL, the MCHC [7] was 26.3 ± 2.2 g/dL and the MCV [7] was 53.3 ± 5.1 fL. For the same molecule, the PLT [7] was 580.3 ± 119.8 103/μL, the RBC-H [7] was 9.0 ± 0.1 106/μL and the WBC-H [7] was 7.9 ± 1.4 103/μL. The “ALP, plasma” value [7] was 63.0 ± 3.4 U/L, the “ALT, plasma” value [7] was 48.0 ± 4.8 U/L and the “AST, plasma” value [7] was 48.5 ± 4.50 U/L. The “BUN, plasma” value [7] was 20.3 ± 0.2 mg/dL, the “CREAT (creatinine), plasma” value [7] was 0.2 ± 0.0 mg/dL and the “GLU (glucose), plasma” value [7] was 272.3 ± 15.4 mg/dL. For the same molecule, the “ALT level versus control” value (treated males, 90 days) was “did not show a significant change”.
